For 17 compounds, IC50 and Ki results are on record in ChEMBL document CHEMBL1909046, “DrugMatrix in vitro pharmacology data”.

In data set [1] the target is Voltage-gated inwardly rectifying potassium channel KCNH2 (Homo sapiens, UniProt Q12809). To be noted: hek293. Note: in other assays of this panel Not Active means under 50% inhibition at 10 µM.
The target of data set [2] is Protein phosphatase 3 catalytic subunit alpha (Homo sapiens, UniProt Q08209). The arrangement: species or system Escherichia coli.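 Note: inhibition of calcineurin (PP2B) enzyme activity, measured with DiFMUP as the substrate; in other assays of this panel Not Active means under 50% inhibition at 10 µM.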
For a further data set, the target named is T1, Endothelin-1 receptor (Homo sapiens, UniProt P25101). Note: in other assays of this panel Not Active means under 50% inhibition at 10 µM.
T1 sequence (P25101 whole entry): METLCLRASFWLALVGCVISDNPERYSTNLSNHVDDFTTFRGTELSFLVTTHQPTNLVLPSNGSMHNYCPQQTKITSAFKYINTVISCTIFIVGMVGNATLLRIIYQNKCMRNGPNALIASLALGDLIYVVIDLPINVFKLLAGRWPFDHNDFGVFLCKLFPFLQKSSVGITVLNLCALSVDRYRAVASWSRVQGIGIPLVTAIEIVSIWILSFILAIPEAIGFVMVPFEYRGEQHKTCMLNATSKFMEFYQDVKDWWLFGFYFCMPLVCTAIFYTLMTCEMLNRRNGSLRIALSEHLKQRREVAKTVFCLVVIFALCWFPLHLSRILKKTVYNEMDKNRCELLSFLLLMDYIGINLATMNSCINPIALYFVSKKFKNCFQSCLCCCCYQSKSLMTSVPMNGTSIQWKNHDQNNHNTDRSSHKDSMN
The format is cell membranes, CHO-K1, Membrane. The note with it: cho-k1.

Data set [3] concerns the target Sodium-dependent dopamine transporter (Homo sapiens, UniProt Q01959). The experiment in a line: DRUGMATRIX: Dopamine Transporter radioligand binding (ligand: [125I] RTI-55). The format is cell membranes, CHO-K1, Membrane. To be noted: cho-k1; Not Active = under 50% inhibition at 10 µM.
Data set [4] deals with T2, Polyunsaturated fatty acid lipoxygenase ALOX15 (Oryctolagus cuniculus, UniProt P12530).
T2 sequence (P12530 whole entry): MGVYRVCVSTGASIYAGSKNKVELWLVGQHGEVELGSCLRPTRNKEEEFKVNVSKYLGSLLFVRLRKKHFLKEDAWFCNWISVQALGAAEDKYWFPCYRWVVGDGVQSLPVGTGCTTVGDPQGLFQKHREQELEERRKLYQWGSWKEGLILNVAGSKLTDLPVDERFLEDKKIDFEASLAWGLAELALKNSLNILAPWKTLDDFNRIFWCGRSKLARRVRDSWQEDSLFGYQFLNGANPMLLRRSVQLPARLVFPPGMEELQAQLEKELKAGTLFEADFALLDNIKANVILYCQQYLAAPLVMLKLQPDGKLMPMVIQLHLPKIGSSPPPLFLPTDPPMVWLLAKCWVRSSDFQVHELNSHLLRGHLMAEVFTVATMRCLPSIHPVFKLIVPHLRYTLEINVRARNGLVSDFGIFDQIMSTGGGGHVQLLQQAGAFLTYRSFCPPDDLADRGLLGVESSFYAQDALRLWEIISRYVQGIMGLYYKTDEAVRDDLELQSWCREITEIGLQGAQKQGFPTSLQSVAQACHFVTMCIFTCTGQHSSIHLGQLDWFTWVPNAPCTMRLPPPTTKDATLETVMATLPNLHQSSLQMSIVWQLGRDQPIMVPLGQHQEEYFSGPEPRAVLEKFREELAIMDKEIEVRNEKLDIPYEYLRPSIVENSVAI
The experiment in a line: biochemical. Format: tissue-based, Reticulocytes. The note with it: reticulocytes.

Data set [5] deals with cGMP-specific 3',5'-cyclic phosphodiesterase (Homo sapiens, UniProt O76074). Nature of the data set: DRUGMATRIX: Phosphodiesterase PDE5 enzyme inhibition (substrate: [3H]cGMP + cGMP). Format: tissue-based. To be noted: platelet; Not Active = under 50% inhibition at 10 µM.
Data set [6] addresses T3, 5-hydroxytryptamine receptor 2C (Homo sapiens, UniProt P28335).
T3 sequence (P28335 whole entry): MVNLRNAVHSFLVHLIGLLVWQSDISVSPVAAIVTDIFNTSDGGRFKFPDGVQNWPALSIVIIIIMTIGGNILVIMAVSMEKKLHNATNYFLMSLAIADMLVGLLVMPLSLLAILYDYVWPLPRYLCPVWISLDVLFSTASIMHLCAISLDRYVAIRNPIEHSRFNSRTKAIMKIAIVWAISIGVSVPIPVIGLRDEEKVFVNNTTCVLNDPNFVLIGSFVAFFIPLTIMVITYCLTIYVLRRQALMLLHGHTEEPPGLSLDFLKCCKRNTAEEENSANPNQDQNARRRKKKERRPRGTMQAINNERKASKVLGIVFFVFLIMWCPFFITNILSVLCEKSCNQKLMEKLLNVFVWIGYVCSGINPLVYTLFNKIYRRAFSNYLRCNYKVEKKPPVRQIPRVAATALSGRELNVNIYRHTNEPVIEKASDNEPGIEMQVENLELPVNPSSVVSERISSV
Nature of the data set: DRUGMATRIX: Serotonin (5-Hydroxytryptamine) 5-HT2C radioligand binding (ligand: [3H] Mesulergine). The format is cell membranes, CHO-K1, Membrane. The note with it: Not Active = under 50% inhibition at 10 µM.

Sequence of Sodium-dependent dopamine transporter (Q01959 whole entry): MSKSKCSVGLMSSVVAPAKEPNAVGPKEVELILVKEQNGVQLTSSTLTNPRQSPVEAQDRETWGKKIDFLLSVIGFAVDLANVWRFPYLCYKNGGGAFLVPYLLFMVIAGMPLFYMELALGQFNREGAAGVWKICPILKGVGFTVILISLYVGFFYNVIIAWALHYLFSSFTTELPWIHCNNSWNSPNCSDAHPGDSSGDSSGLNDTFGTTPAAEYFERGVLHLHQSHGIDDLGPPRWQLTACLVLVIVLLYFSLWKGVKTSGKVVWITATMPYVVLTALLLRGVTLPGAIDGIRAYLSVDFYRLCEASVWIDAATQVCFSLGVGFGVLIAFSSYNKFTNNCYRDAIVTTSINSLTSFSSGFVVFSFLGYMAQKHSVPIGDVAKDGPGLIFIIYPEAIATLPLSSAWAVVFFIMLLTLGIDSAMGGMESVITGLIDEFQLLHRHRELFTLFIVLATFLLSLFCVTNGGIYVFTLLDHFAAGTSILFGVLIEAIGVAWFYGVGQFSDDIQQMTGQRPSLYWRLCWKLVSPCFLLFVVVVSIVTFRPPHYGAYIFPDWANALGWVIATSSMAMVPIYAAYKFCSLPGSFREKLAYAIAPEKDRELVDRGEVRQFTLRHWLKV
Sequence of Voltage-gated inwardly rectifying potassium channel KCNH2 (Q12809 whole entry): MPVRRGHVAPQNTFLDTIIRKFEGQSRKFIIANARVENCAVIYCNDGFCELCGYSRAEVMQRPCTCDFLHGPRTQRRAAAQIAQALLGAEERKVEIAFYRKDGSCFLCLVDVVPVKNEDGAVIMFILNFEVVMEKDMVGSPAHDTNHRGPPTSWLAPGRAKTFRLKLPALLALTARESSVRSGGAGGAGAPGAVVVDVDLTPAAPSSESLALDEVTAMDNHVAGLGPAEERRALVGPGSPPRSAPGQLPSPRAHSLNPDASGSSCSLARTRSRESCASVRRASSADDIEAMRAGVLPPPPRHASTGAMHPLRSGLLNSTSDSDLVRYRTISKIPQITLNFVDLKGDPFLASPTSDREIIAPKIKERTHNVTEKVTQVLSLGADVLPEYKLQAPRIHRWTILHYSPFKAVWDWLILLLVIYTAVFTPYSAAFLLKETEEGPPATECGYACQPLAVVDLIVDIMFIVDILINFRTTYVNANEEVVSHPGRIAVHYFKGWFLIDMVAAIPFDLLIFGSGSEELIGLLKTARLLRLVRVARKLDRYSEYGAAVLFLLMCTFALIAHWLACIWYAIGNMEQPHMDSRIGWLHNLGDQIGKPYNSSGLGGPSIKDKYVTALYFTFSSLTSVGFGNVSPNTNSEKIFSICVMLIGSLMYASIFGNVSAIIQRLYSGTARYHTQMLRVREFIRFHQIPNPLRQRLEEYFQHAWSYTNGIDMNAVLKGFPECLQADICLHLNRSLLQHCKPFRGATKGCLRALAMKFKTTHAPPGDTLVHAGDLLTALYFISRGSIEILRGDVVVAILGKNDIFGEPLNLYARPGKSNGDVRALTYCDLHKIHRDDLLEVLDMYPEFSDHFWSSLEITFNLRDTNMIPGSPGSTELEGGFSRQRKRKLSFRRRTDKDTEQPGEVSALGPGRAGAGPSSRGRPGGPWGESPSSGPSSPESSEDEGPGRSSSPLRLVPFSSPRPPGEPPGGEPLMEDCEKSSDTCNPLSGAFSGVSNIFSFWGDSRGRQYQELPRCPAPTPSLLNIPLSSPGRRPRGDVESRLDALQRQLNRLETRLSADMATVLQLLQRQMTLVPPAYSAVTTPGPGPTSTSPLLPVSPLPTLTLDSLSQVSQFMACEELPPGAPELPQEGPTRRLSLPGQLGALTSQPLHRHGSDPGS

A word on the IC50: it is the concentration that inhibits the measured activity by half. The Ki is a measure of affinity in units of concentration, obtained from inhibition or displacement. As to `NC[C@@H]1O[C@H](O[C@H]2[C@@H](O)[C@H](O[C@@H]3[C@@H](O)[C@H](N)C[C@H](N)[C@H]3O[C@H]3O[C@H](CN)[C@@H](O)[C@H](O)[C@H]3N)O[C@@H]2CO)[C@H](N)[C@@H](O)[C@@H]1O` [FRAMYCETIN], the IC50 result (in data set [1]; in data set [2]; at Endothelin-1 receptor; in data set [3]; in data set [4]; in data set [5]) was “Not Active” each time. Further, in data set [6] (cho-k1), the half-maximal inhibitory concentration (IC50) result is “Not Active”. In data set [1], the Ki entry is given as “Not Active”.

On to `C[C@H]([C@](O)(Cn1cncn1)c1ccc(F)cc1F)S(C)(=O)=O` [GENACONAZOLE], for which the IC50 result (in data set [1]; in data set [2]; against Endothelin-1 receptor; in data set [3]; in data set [4]; in data set [5]) was “Not Active” each time. The IC50 result in data set [6] (cho-k1) is on record as “Not Active”. Besides, the inhibition constant Ki entry in data set [1] is reported as “Not Active”.

`Cc1c(F)c(N2CCNC(C)C2)cc2c1c(=O)c(C(=O)O)cn2C1CC1` (configuration not stated) [GREPAFLOXACIN]: the IC50 entry (in data set [1]; in data set [2]; on Endothelin-1 receptor; in data set [3]; in data set [4]; in data set [5]) was “Not Active” in each case. The concentration for half-maximal inhibition (IC50) result in data set [6] (cho-k1) is on record as “Not Active”. Moreover, the Ki result in data set [1] was “Not Active”.

As for `COc1ccccc1OCC(O)CO` (configuration not stated) [GUAIFENESIN], the IC50 entry (in data set [1]; in data set [2]; on Endothelin-1 receptor; in data set [3]; in data set [4]; in data set [5]) was “Not Active” each time. In data set [6] (cho-k1), the IC50 result was “Not Active”. In data set [1], the inhibitory constant (Ki) entry is given as “Not Active”.

As for `N=C(N)N/N=C/c1c(Cl)cccc1Cl` [GUANABENZ], the IC50 result (in data set [1]; in data set [2]; on Endothelin-1 receptor; in data set [3]; in data set [4]; in data set [5]) was “Not Active” in each case. In data set [6] (read-out: IC50), the IC50 came out at 204 nM. The values for the Ki entry in data set [1] and in data set [6] (read-out: Ki) were “Not Active” and 107 nM, respectively.

Take `C[C@]12CCC(=O)C=C1CC[C@@H]1[C@@H]2[C@@H](O)C[C@@]2(C)[C@H]1CC[C@]2(O)C(=O)CO` [HYDROCORTISONE]: the 50% inhibitory concentration (IC50) entry (in data set [1]; in data set [2]; against Endothelin-1 receptor; in data set [3]; in data set [4]; in data set [5]) was “Not Active” throughout. Besides, the IC50 result in data set [6] (cho-k1) is reported as “Not Active”. Further, the Ki entry in data set [1] is on record as “Not Active”.

Consider `NC[C@H]1O[C@H](O[C@H]2[C@H](O)[C@@H](O[C@H]3O[C@H](CO)[C@@H](O)[C@H](N)[C@H]3O)[C@H](N)C[C@@H]2N)[C@H](O)[C@@H](O)[C@@H]1O` [KANAMYCIN], for which the IC50 result (in data set [1]; in data set [2]; on Endothelin-1 receptor; in data set [3]; in data set [4]; in data set [5]) was “Not Active” each time. Further, the IC50 result in data set [6] (cho-k1) is “Not Active”. For the same compound, the inhibition constant (Ki) entry in data set [1] was “Not Active”.

`CC(C(=O)O)c1ccc(CC2CCCC2=O)cc1` (configuration not stated) [LOXOPROFEN]: the IC50 result (in data set [1]; in data set [2]; at Endothelin-1 receptor; in data set [3]; in data set [4]; in data set [5]) was “Not Active” in each case. Further, the half-maximal inhibitory concentration (IC50) result in data set [6] (cho-k1) was “Not Active”. For the same compound, in data set [1], the Ki result is on record as “Not Active”.

Consider `Cc1cccc(Nc2ccccc2C(=O)O)c1C` [MEFENAMIC ACID], for which the half-inhibitory concentration (IC50) entry (in data set [1]; in data set [2]; against Endothelin-1 receptor; in data set [3]; in data set [4]; in data set [5]) was “Not Active” each time. Further, in data set [6] (cho-k1), the IC50 entry is on record as “Not Active”. Also, in data set [1], the Ki result is given as “Not Active”.

For `CC(=O)O[C@]1(C(C)=O)CC[C@H]2[C@@H]3C=C(C)C4=CC(=O)CC[C@]4(C)[C@H]3CC[C@@]21C` [MEGESTROL ACETATE], the IC50 entry (in data set [1]; in data set [2]; against Endothelin-1 receptor; in data set [3]; in data set [4]; in data set [5]) was “Not Active” throughout. In data set [6] (cho-k1), the concentration for half-maximal inhibition (IC50) result is listed as “Not Active”. For the same compound, the Ki entry in data set [1] is “Not Active”.

`COc1ccccc1OCC(O)COC(N)=O` (configuration not stated) [METHOCARBAMOL]: the half-inhibitory concentration (IC50) entry (in data set [1]; in data set [2]; at Endothelin-1 receptor; in data set [3]; in data set [4]; in data set [5]) was “Not Active” in each case. Moreover, the half-inhibitory concentration (IC50) entry in data set [6] (cho-k1) is “Not Active”. Also, the Ki result in data set [1] was “Not Active”.

`CN(Cc1cnc2nc(N)nc(N)c2n1)c1ccc(C(=O)N[C@@H](CCC(=O)O)C(=O)O)cc1` [METHOTREXATE]: the IC50 entry (in data set [1]; in data set [2]; against Endothelin-1 receptor; in data set [3]; in data set [4]; in data set [5]) was “Not Active” throughout. Besides, the IC50 result in data set [6] (cho-k1) is “Not Active”. Besides, the inhibition constant Ki result in data set [1] is “Not Active”.

In the case of `COC(=O)c1ccccc1O` [METHYL SALICYLATE], the half-maximal inhibitory concentration (IC50) entry (in data set [1]; in data set [2]; at Endothelin-1 receptor; in data set [3]; in data set [4]; in data set [5]) was “Not Active” throughout. The 50% inhibitory concentration (IC50) entry in data set [6] (cho-k1) is “Not Active”. In addition, the Ki result in data set [1] was “Not Active”.

In the case of `COc1ccc2cc(CCC(C)=O)ccc2c1` [NABUMETONE], the IC50 result (in data set [1]; in data set [2]; on Endothelin-1 receptor; in data set [3]; in data set [4]; in data set [5]) was “Not Active” throughout. The IC50 result in data set [6] (cho-k1) is reported as “Not Active”. The Ki result in data set [1] is given as “Not Active”.

Regarding `O=C(O)c1cccnc1` [NIACIN], the IC50 result (in data set [1]; in data set [2]; against Endothelin-1 receptor; in data set [3]; in data set [4]; in data set [5]) was “Not Active” in each case. Moreover, the half-maximal inhibitory concentration (IC50) result in data set [6] (cho-k1) is listed as “Not Active”. For the same compound, in data set [1], the inhibition constant Ki result is “Not Active”.

For `CNC(=C[N+](=O)[O-])NCCSCc1csc(CN(C)C)n1` [NIZATIDINE], the concentration for half-maximal inhibition (IC50) result (in data set [1]; in data set [2]; against Endothelin-1 receptor; in data set [3]; in data set [4]; in data set [5]) was “Not Active” in each case. Moreover, in data set [6] (cho-k1), the IC50 entry is given as “Not Active”. Moreover, the Ki entry in data set [1] is on record as “Not Active”.

For the compound `C[C@]12C/C(=C/O)C(=O)C[C@@H]1CC[C@@H]1[C@@H]2CC[C@@]2(C)[C@H]1CC[C@]2(C)O` [OXYMETHOLONE], the IC50 result (in data set [1]; in data set [2]; against Endothelin-1 receptor; in data set [3]; in data set [4]; in data set [5]) was “Not Active” in each case. The IC50 result in data set [6] (cho-k1) is “Not Active”. For the same compound, the Ki result in data set [1] was “Not Active”.
